Biological target: CYP3A4 (Homo sapiens, UniProt P08684, S18F)
Assay: Stopped-flow spectroscopy of ligand binding to CYP3A4 nanodiscs
Settings: faster in POPC nanodiscs

C[C@]12CC[C@H]3[C@@H](CCC4=CC(=O)CC[C@@]43C)[C@@H]1CC[C@@H]2O [TST, testosterone]
rate constant for binding in POPC nanodiscs relative to 25% POPC/75% DMPC nanodiscs: ~ 4 fold

Reference: publication PMC5275761 (Biochemistry, 2016)
